From patent US5436251A, “Treatment of anxiety and gastrointestinal disorders with azabicyclo carbonyl-2-(cyclopropylmethyloxy)benzamide” (John Wyeth & Brother, Limited, priority 1992, dated 1995)

Experiments:
[1] = Potential anxiolytic activity: mouse exploratory activity in a two-compartment light/dark box; type: in vivo; conditions: for minimal effective dose: Mus musculus, sc, read-out: minimum effective dose (MED)
Procedure: Compound A, the compound of GB 2236528A and a representative number of compounds disclosed in GB 2213816A which had high pA2 values in the 5-HT3 -antagonist test procedure given above were tested for potential anxiolytic activity by a test procedure measuring mouse exploratory activity in a two-compartment light/dark box based upon the procedure of B Costall et al, Neuropharmacology, 1987, 26, 195-200 and J. N. Crawley et al, Pharmac. Biochemo Behav., 1980, 13, 167-170. The test involves observing groups of mice placed in an open topped box, one third of which is painted black and illuminated under a dim red light and partitioned from the remainder of the box which is painted white and brightly illuminated. Access between the two sections is via an opening in the centre of the partition. The groups of mice are treated with vehicle or test compound and various behavioural parameters of the animals are measured including the number of exploratory rearings made by the mice in each section and the number of times the mice cross lines marked on the floor of each section. For each treatment group the mean numbers of line crossings and rears in each section of the box are calculated. Differences between drug-treated groups and vehicle-treated controls are compared using Student's unpaired t-test. […] Test compounds are considered to be active if they induce a similar set of changes and, in particular, if they produce a significant (p<0.05) increase in rearing activity in the light section of the box.

5-HT3 receptors = biological target: T1, 5-HT3 receptors (Rattus norvegicus, UniProt P35563); test: 5-HT3 antagonistic activity in the rat vagus (antagonism of 5-HT depolarization of isolated vagus nerve, Schild analysis); set-up: species or system rat (Sprague-Dawley); conditions: for Kb: antagonism of 5-HT depolarization, rat vagus nerve in vitro, Schild analysis, read-out: pA2 (converted)
T1 construct: from tissue; host or cells: isolated vagus nerve segments, Sprague-Dawley rat
T1 sequence (P35563 24-483): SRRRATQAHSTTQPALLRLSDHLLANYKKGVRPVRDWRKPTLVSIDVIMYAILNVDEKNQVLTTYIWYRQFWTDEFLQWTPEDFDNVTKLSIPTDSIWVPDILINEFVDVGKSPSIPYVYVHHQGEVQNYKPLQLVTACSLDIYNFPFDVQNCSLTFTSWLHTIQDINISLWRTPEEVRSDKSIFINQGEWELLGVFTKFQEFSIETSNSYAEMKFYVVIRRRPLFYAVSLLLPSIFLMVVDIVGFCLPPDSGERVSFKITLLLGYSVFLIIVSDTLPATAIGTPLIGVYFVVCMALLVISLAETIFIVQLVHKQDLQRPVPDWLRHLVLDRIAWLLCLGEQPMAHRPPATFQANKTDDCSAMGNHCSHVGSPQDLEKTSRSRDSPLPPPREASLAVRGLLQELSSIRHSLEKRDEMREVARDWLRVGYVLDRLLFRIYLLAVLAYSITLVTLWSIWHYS
Procedure: Compound A, the compound of GB 2236528A and the compounds disclosed in GB 2213816A are tested for 5-HT3 antagonistic activity in the rat vagus by the following procedure:
The method is similar to that described by Ireland and Tyers, Br. J. Pharmac., 1987, 90, 229-238 and is dependent upon the ability of 5-HT to depolarize the vagus nerve in vitro.
Segments of the vagus nerve from Sprague-Dawley rats were placed in a perspex chamber and perfused with Krebs solution. Electrodes, positioned at either end of the nerve segment, were used to record the potential differences which ensued upon the addition of various concentrations of 5-HT to one end of the nerve segment.
Concentration-response curves to 5-HT were obtained in this manner prior to and following equilibration of the nerve segment with Krebs solution containing the test-substance.

[2] = significant (p<0.05) increase in rearing activity in the light section

For CN1[C@@H]2CC[C@H]1C[C@@H](NC(=O)NC(=O)c1ccccc1OCC1CC1)C2 [Compound of GB 2236528A, (endo)-N-[[(8-methyl-8-azabicyclo[3.2.1]octan-3-yl)amino]carbonyl]-2-(cyclopropylmethoxy]benzamide], the minimal effective dose [1, 2] was 0.01 mg/kg and the Kb (5-HT3 receptors) was 1.26 nM.
With O=C(NC(=O)c1ccccc1OCC1CC1)N[C@H]1C[C@H]2CC[C@@H](C1)N2 [Compound A, (endo)-N-[[[8-azabicyclo[3.2.1]-octan-3-yl]amino]carbonyl]-2-(cyclopropylmethyloxy)benzamide] the minimal effective dose [1, 2] was 0.001 mg/kg, the “potency as potential anxiolytic compared with GB 2236528A and GB 2213816A compounds” value ([1]; mouse light/dark box, s.c., comparison in words) was “surprisingly more potent” and the Kb (5-HT3 receptors) was 0.398 nM. For the same compound, the “potency as 5-HT3 antagonist compared with GB 2236528A and GB 2213816A compounds” value (5-HT3 receptors; rat vagus, comparison in words) was “surprisingly more potent as 5-HT3 -antagonists”.
In the case of O=C(NC(=O)c1ccccc1OCC1CC1)NC1CC2CCC(C1)N2 (stereo not shown) [Example 1], the “minimum effective dose (MED)” value ([1]; s.c., significant (p<0.05) increase in rearing activity in the light section) is reported as 0.1 mg/kg.
